The test system of assay [1] is T1, Plasmodium falciparum Dd2-attB (parental line), asexual blood stages.
T1 construct: Dd2-attB, the isogenic parental line
Kind of assay: microbe, parasite or virus in culture. More on the design: replicate k of 3 (each line is one of three independent assays; the three lines of one compound and parasite line follow each other). The note with it: n = 1; for Individual replicates / Log AC50 (M): 72 h; for AC50: Plasmodium falciparum, DD2, 72 h, read-out: Individual replicates / Log AC50 (converted). An outline of the steps:
(§1)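 Statistics: two-sided Student's t-test between parental and transgenic values, from three independent assays. The transgene encodes a fumarate-dependent DHODH from yeast, independent of the parasite mETC.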

Assay [2] relates to T2, Plasmodium falciparum Dd2-attB-ScDHODH (transgenic line expressing yeast DHODH), asexual blood stages.
T2 construct: Dd2-attB-ScDHODH, the transgenic line that expresses yeast DHODH
Kind of assay: organism not typed. More on the design: replicate k of 3 (each line is one of three independent assays; the three lines of one compound and parasite line follow each other). The method in brief:
as §1

The mark [3] stands for this setting: 72 h; n = 1; read-out: Individual replicates / Log AC50 (converted).

Where “and” joins values, the source holds several entries; their conditions need not be identical. Equal entries are not always repeated.

As for `CC(C)OC(=O)c1ccnc2cc(C(OCCN3CCCCC3)c3cccc(N)c3)sc12` (stereo not shown) [NCGC00488684-01], the “Individual replicates / Log AC50 (M)” value is -5.1986 Log AC50 (M) and -5.1486 Log AC50 (M) in assay [1]; -5.0986 Log AC50 (M) in assay [2] (72 h, n = 1). Besides, the figures for the AC50 in assay [1] and in assay [2] (setting [3]) were 7.1 µM and 12.6 µM, respectively.
`CC(C)OC(=O)c1ccnc2cc(C(OCCN3CCCCC3)c3ccccc3Cl)sc12` (stereo not shown) [NCGC00481510-01]: the “Individual replicates / Log AC50 (M)” value in assay [1] is on record as -5.1986 Log AC50 (M); in assay [2] (72 h, n = 1), -5.0986 Log AC50 (M). Besides, the AC50 is 7.1 µM in assay [1] and 8.94 µM in assay [2] (setting [3]).
`CCOC(=O)C1(Cc2ccc(Cl)cc2)CCN(C(=O)c2cc(C)oc2C)CC1` [NCGC00426139-02]: the “Individual replicates / Log AC50 (M)” value in assay [1] was -5.0986 Log AC50 (M); in assay [2] (72 h, n = 1), -4.8986 Log AC50 (M) and -4.7986 Log AC50 (M). The AC50 in assay [1] is 8.94 µM; in assay [2] (setting [3]), 15.9 µM.
Take `Oc1ccc(CNc2cccc(F)c2)c2cccnc12` [NCGC00184892-01]: the “Individual replicates / Log AC50 (M)” value was -4.7486 Log AC50 (M) and -4.8486 Log AC50 (M) in assay [1]; -4.7486 Log AC50 (M) in assay [2] (72 h, n = 1). The AC50 in assay [1] is 12.6 µM; in assay [2] (setting [3]) it was 17.8 µM.
For `Oc1ccc(CNc2ccccc2Cl)c2cccnc12` [NCGC00184891-01], the “Individual replicates / Log AC50 (M)” value in assay [1] is on record as -4.6986 Log AC50 (M); in assay [2] (72 h, n = 1), -4.7486 Log AC50 (M). Besides, the AC50 in assay [1] was 15.9 µM; in assay [2] (setting [3]) it was 14.2 µM.
As to `Oc1cc(-c2ccc(CN3CCOCC3)cc2)cc2cccnc12` [NCGC00247750-01], the “Individual replicates / Log AC50 (M)” value in assay [1] was -5.2986 Log AC50 (M) and -5.3986 Log AC50 (M); in assay [2] (72 h, n = 1) it was -5.2986 Log AC50 (M) and -5.1486 Log AC50 (M). The AC50 in assay [1] and in assay [2] (setting [3]) was 5.03 µM throughout.
In the case of `CN(C)CCCNC(=O)c1ccc(-c2cc(O)c3ncccc3c2)cc1` [NCGC00183808-03], the “Individual replicates / Log AC50 (M)” value in assay [1] is -4.9486 Log AC50 (M) and -4.8986 Log AC50 (M); in assay [2] (72 h, n = 1) it was -4.8486 Log AC50 (M). In addition, the results for the AC50 in assay [1] and in assay [2] (setting [3]) were 14.2 µM and 12.6 µM, respectively.
Consider `O=C(c1ccc(-c2cnc3c(O)cccc3c2)cc1)N1CCNCC1` [NCGC00189507-01], for which the “Individual replicates / Log AC50 (M)” value in assay [1] was -4.8986 Log AC50 (M) and -4.9986 Log AC50 (M); in assay [2] (72 h, n = 1), -4.7986 Log AC50 (M). Also, the figures for the AC50 in assay [1] and in assay [2] (setting [3]) were 14.2 µM and 10 µM, respectively.
As for `CCCCN1CCCc2cc(CN(CCCN3CCOCC3)C(=O)Nc3ccc(CC)cc3)ccc21` [NCGC00140595-02], the “Individual replicates / Log AC50 (M)” value is given as -5.0986 Log AC50 (M) in assay [1] and -5.0486 Log AC50 (M) in assay [2] (72 h, n = 1). The AC50 in assay [1] and in assay [2] (setting [3]) was 7.97 µM each time.
Turning to `O=C(O)c1ccnc(-n2ncc(C(OCCN3CCCCC3)c3cccc(-c4ccccc4)c3)c2-c2cccc(-c3ccccc3)c2)c1` (stereo not shown) [NCGC00487052-02], the “Individual replicates / Log AC50 (M)” value in assay [1] is -5.3986 Log AC50 (M) and -5.4486 Log AC50 (M) and -5.3486 Log AC50 (M); in assay [2] (72 h, n = 1) it was -5.1486 Log AC50 (M) and -5.2486 Log AC50 (M).
For `CCOc1ccc(-c2[nH]c3c(C#N)cnn3c2NC2CCCC2)cc1` [NCGC00120007-02], the “Individual replicates / Log AC50 (M)” value in assay [1] is reported as -4.7486 Log AC50 (M); in assay [2] (72 h, n = 1), -4.8486 Log AC50 (M). Moreover, the AC50 in assay [1] was 14.2 µM; in assay [2] (setting [3]) it was 17.8 µM.
Turning to `O=C(O)c1ccc(N(CCN2CCC(F)(F)CC2)c2ccc(F)cc2)cn1` [NCGC00390011-01], in assay [1], the “Individual replicates / Log AC50 (M)” value was -4.7486 Log AC50 (M) and the AC50 is 20 µM. In addition, the AC50 in assay [2] (setting [3]) was 17.8 µM.
For `NC(=O)c1cccc(-c2cnc3c(O)ccc(C(=O)O)c3c2)c1` [NCGC00241055-01], the values for the AC50 in assay [1] and in assay [2] (setting [3]) were 15.9 µM and 14.2 µM, respectively.
As for `Cc1nn2c(c1-c1ccccc1-c1ccccc1)N(CCCc1ccccc1)CCC2` [NCGC00500005-01], the “Individual replicates / Log AC50 (M)” value in assay [1] was -5.0486 Log AC50 (M); in assay [2] (72 h, n = 1), -5.0486 Log AC50 (M) and -4.8986 Log AC50 (M). Besides, the AC50 is 7.97 µM in assay [1] and 8.94 µM in assay [2] (setting [3]).
Take `C/C(=N\NC(=S)N1CCN(c2ccccn2)CC1)c1ccccn1` [NCGC00386445-01]: the “Individual replicates / Log AC50 (M)” value in assay [1] and in assay [2] (72 h; n = 1) was -5.3486 Log AC50 (M) throughout. Moreover, the AC50 in assay [1] and in assay [2] (setting [3]) was 4.48 µM in each case.
Turning to `CN(C)c1ccc(-c2nc(-c3ccccc3O)n(Cc3ccccc3)n2)cc1` [NCGC00388637-01], the “Individual replicates / Log AC50 (M)” value in assay [1] is -6.0986 Log AC50 (M); in assay [2] (72 h, n = 1), -5.6486 Log AC50 (M) and -6.0486 Log AC50 (M) and -6.1486 Log AC50 (M). Further, in assay [1], the AC50 was 0.797 µM.

(Values after article PMC7822874, “Chemoprotective antimalarials identified through quantitative high-throughput screening of Plasmodium blood and liver stage parasites” (Scientific Reports, 2021).)
